Our source for the activation and EC50 values is patent US8293729B2 (Boehringer Ingelheim International GmbH, priority 2009, dated 2012).

One assay concerns the target T1, human GPR119 receptor (Homo sapiens, UniProt Q8TDV5, S329A/T327A).
T1 construct: N-terminal leader […]; expressed in transfected cells
T1 sequence (Q8TDV5 with tags, fused parts or gaps T327A/S329A): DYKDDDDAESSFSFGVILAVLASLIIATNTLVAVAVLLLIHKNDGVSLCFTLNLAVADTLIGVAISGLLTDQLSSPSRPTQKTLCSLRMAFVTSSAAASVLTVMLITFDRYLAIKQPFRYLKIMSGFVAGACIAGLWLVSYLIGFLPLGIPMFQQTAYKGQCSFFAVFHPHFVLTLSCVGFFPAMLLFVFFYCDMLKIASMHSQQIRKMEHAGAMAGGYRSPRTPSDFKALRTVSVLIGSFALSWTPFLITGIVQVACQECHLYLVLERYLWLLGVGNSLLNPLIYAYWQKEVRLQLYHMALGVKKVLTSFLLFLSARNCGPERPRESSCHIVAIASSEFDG
Briefly: cAMP assay (LANCE cAMP-384) in HEK293 cells stably expressing mutant human GPR119 receptor. Format: cell-based. Particulars: HEK293, 20 min; at 10 μM; printed in EC50 column of the 36th table; read-out: stimulation in % at 10 μM. The procedure: Quantitative detection of cAMP accumulation from cells expressing human GPR119 receptor was achieved using Perkin Elmer's LANCE cAMP-384 Kit (Cat#AD0264) according to the manufacturer's protocol. Briefly, HEK293 cells stably expressing a mutant form of the human GPR119 receptor (Methionine 1 replaced with the amino acid sequence […] (SEQ ID NO: 1), and T327 & S329 changed to alanines) were grown to 50-70% confluency in cell culture media (DMEM, 10% heat inactivated Fetal Bovine Serum, 50 I.U./mL penicillin, 50 μg/mL streptomycin, 10 mM HEPES, 20 μg/mL G418 Sulfate). On the day of the assay, GPR119 stable HEK293 cells were lifted from the tissue culture plate and 1000 cells/well were incubated along with various concentrations of test compounds for 20 min at 37° C. Detection Buffer (50mM HEPES, 10mM calcium chloride, 0.35% Triton X-100, 1 mg/mL BSA) containing cAMP-specific antibody was then added to all wells and allowed to equilibrate in the dark for 10 minutes at room temperature. Upon equilibration, Detection Buffer containing europium-labeled cAMP tracer complex was added to all wells and allowed to react for 1 hour at room temperature. After 1 hour, bound europium-labeled cAMP tracer was measured using a Perkin Elmer ViewLux. The quantity of cAMP generated in each well was derived from a standard curve. EC50 was determined using nonlinear regression analysis of the cAMP values over a range of agonist concentration (12 points spanning the range from 30 μM to 100pM).
For some compounds for which no EC50 value could be determined, the efficacy is provided at a single concentration (10 μM) yielding % stimulation values.
Consider `CS(=O)(=O)c1ccc(N2CCC(=NOC3CCN(Cc4nccs4)CC3)CC2)c(F)c1` [Example 66-6], for which the activation at 10 µM came out at 63%.

Still in this assay, the particulars now being: HEK293, 20 min; single concentration 10 μM; given where no EC50 value could be determined; read-out: % stimulation at 10 μM.
Regarding `CC(C)OC(=O)N1CCC(ON=C2CCN(c3cc(F)c(C(=N)N)cc3F)CC2)CC1` [Example 23-1, 4-[1-(4-Carbamimidoyl-2,5-difluoro-phenyl)-piperidin-4-ylideneaminooxy]-piperidine-1-carboxylic acid isopropyl ester], the activation at 10 µM was determined as 3%.
Consider `CC(C)OC(=O)N1CCC(ON=C2CCN(c3cc(F)c(CN4CCOCC4)cc3F)CC2)CC1` [Example 5-4], for which the activation at 10 µM amounted to 69%.
On the same count and under the same terms, to `CC(C)OC(=O)N1CCC(ON=C2CCN(c3cc(F)c(-c4nnn[nH]4)cc3F)CC2)CC1` [Example 27-28] belongs 86%.
On to `CC(C)OC(=O)N1CCC(ON=C2CCN(c3ncc(Cl)cc3F)CC2)CC1` [Example 2-68], for which the activation at 10 µM was determined as 63%.

Still in this assay, the particulars now being: cAMP accumulation, HEK293 cells stably expressing mutant human GPR119; read-out: EC50.
Turning to `CC(C)OC(=O)N1CCC(ON=C2CCN(c3cc(F)c(CN(C)CCO)cc3F)CC2)CC1` [Example 5-3], the EC50 is over 10000 nM.
Same read-out and setting: to `CNCCNC(=O)c1cc(F)c(N2CCC(=NOC3CCN(C(=O)OC(C)C)CC3)CC2)cc1F` [Example 31-1, 4-{1-[2,5-Difluoro-4-(2-methylamino-ethylcarbamoyl)-phenyl]-piperidin-4-ylideneaminooxy}-piperidine-1-carboxylic acid isopropyl ester] belongs 424 nM; to `CC(C)OC(=O)N1CCC(ON=C2CCN(c3cc(F)c(Cn4cnc5ccncc54)cc3F)CC2)CC1` [Example 14-8], 763 nM; to `CC(C)OC(=O)N1CCC(ON=C2CCN(c3nc(C=O)c(Cl)s3)CC2)CC1` [Example 2-25], over 10000 nM.
On to `CC(C)OC(=O)N1CCC(ON=C2CCN(c3ncccc3F)CC2)CC1` [Example 2-37], for which the EC50 was determined as 630 nM.
Still for that read-out and setting: under `CC(C)OC(=O)N1CCC(ON=C2CCN(c3ccc(F)c(F)n3)CC2)CC1` [Example 2-71] stands 2590 nM.
Turning to `CC(C)OC(=O)N1CCC(ON=C2CCN(c3cc(F)c([S+](C)[O-])cc3F)CC2)CC1` (stereo not shown) [Example 2-41], the EC50 is 58 nM.
Still for that read-out and setting: under `CC(C)OC(=O)N1CCC(ON=C2CCN(c3nc(Cl)ncc3F)CC2)CC1` [Example 2-73] stands 110 nM.
As for `CC(C)OC(=O)N1CCC(ON=C2CCN(c3cc(F)c(C4SCCC[S+]4[O-])cc3F)CC2)CC1` (mixture of isomers) [Example 21-1, 4-{1-[2,5-Difluoro-4-(1-oxo-1 lambda*4*-[1,3]dithian-2-yl)-phenyl]-piperidin-4-ylideneaminooxy}-piperidine-1-carboxylic acid isopropyl ester], the EC50 was 143 nM.
On the same count and under the same terms, under `Cc1cc(N2CCC(=NOC3CCN(C(=O)OC(C)C)CC3)CC2)c(F)cc1C(N)=O` [Example 2-76] stands 534 nM.
On the same count and under the same terms, under `CC(C)OC(=O)N1CCC(ON=C2CCN(c3cc(F)c(-n4ccnc4)cc3F)CC2)CC1` [Example 22-1, 4-[1-(2,5-Difluoro-4-imidazol-1-yl-phenyl)-piperidin-4-ylideneaminooxy]-piperidine-1-carboxylic acid isopropyl ester] stands 435 nM; under `CC(C)OC(=O)N1CCC(ON=C2CCN(c3cc(F)c(-c4cnco4)cc3F)CC2)CC1` [Example 20-1, 4-[1-(2,5-Difluoro-4-oxazol-5-yl-phenyl)-piperidin-4-ylideneaminooxy]-piperidine-1-carboxylic acid isopropyl ester], 100 nM; under `CC(C)OC(=O)N1CCC(ON=C2CCN(c3cc(F)c(CNCc4nccs4)cc3F)CC2)CC1` [Example 5-11], 332 nM.
For the compound `Cc1ccc(-c2cc(F)c(N3CCC(=NOC4CCN(C(=O)OC(C)C)CC4)CC3)cc2F)nc1` [Example 27-26], the EC50 stood at 861 nM.
In the case of `Cc1ccsc1-c1cc(F)c(N2CCC(=NOC3CCN(C(=O)OC(C)C)CC3)CC2)cc1F` [Example 27-24], the EC50 is 329 nM.
The same measure, in the same setting: to `CC(C)OC(=O)N1CCC(ON=C2CCN(c3cc(O)ncc3F)CC2)CC1` [Example 2-74] belongs over 10000 nM; to `CC(C)OC(=O)N1CCC(ON=C2CCN(c3cc(F)c(-c4cncnc4)cc3F)CC2)CC1` [Example 27-6], 243 nM.
On the same count and under the same terms, under `CC(C)OC(=O)N1CCC(ON=C2CCN(c3ccc(S(N)(=O)=O)cc3F)CC2)CC1` [Example 2-36] stands 130 nM.

The same assay, now with this note: the 15th table; read-out: EC50.
In the case of `CC(C)OC(=O)N1CCC(ON=C2CCN(c3cc(F)c(C(=O)N4CCNCC4)cc3F)CC2)CC1` [Example 29-3], the EC50 was 512 nM.

The assay is the same for the next values; noted with them: the 19th table; unit inferred; read-out: EC 50.
Turning to `CCc1cnc(N2CCC(ON=C3CCN(c4cc(F)c(C(=O)N5CCNC[C@@H]5C)cc4F)CC3)CC2)nc1` [Example 29-110], the EC50 was found to be 256 nM.
Still for that read-out and setting: to `CCc1cnc(N2CCC(ON=C3CCN(c4cc(F)c(C(=O)N5CCC(CNC)CC5)cc4F)CC3)CC2)nc1` [Example 29-130] belongs 206 nM.

The same assay, now with this note: the 26th table; read-out: EC50.
Regarding `CC(C)OC(=O)N1CCC(ON=C2CCN(c3cc(F)c(S(C)(=O)=O)cc3F)CC2)CC1` [Example 46-2], the EC50 amounted to 28 nM.
On the same count and under the same terms, under `CC(C)OC(=O)N1CCC(ON=C2CCN(c3ncc(S(C)(=O)=O)cc3F)CC2)CC1` [Example 46-1, 4 (5′-METHYLSULFONYL-3′-FLUORO-2,3,5,6-TETRAHYDRO-[1,2′]BIPYRIDINYL-4-YLIDENEAMINOOXY)-PIPERIDINE-1-CARBOXYLIC ACID ISOPROPYL ESTER] stands 131 nM; under `CC(C)OC(=O)N1CCC(ON=C2CCN(c3ncc(S(C)(=O)=O)cn3)CC2)CC1` [Example 46-4], 157 nM.

Staying with this assay, now noted: the 30th table; read-out: EC50.
Take `Cc1cnn(Cc2cnc(N3CCC(=NOC4CCN(C(=O)OC(C)C)CC4)CC3)c(F)c2)c1` [Example 54-1, 4-[3′-Fluoro-5′-(4-methyl-pyrazol-1-ylmethyl)-2,3,5,6-tetrahydro-[1,2]bipyridinyl-4-ylideneaminooxy]-piperidine-1-carboxylic acid isopropyl ester]: the EC50 was found to be 445 nM.

Still in this assay, the particulars now being: the 32nd table; read-out: EC50.
For the compound `CS(=O)(=O)c1ccc(N2CCC(=NOC3CCN(c4ccncc4)CC3)CC2)c(F)c1` [Example 63-4], the EC50 is over 10000 nM.
On the same count and under the same terms, to `CS(=O)(=O)c1ccc(N2CCC(=NOC3CCN(c4ccc(Br)cn4)CC3)CC2)c(F)c1` [Example 63-20] belongs 387 nM.

The same assay, now with this note: the 36th table, compounds 66-1 to 66-51; read-out: EC50.
Take `CS(=O)(=O)c1ccc(N2CCC(=NOC3CCN(Cc4ccc(F)cc4)CC3)CC2)c(F)c1` [Example 66-33]: the EC50 worked out at 822 nM.
Regarding `CS(=O)(=O)c1ccc(N2CCC(=NOC3CCN(Cc4ccc(Cl)cc4)CC3)CC2)c(F)c1` [Example 66-28], the EC50 amounted to 363 nM.

Staying with this assay, now noted: the 37th table, compounds 66-52 to 66-64; read-out: EC50.
Regarding `CCc1ccc([C@@H](C)N2CCC(ON=C3CCN(c4cc(F)c(S(C)(=O)=O)cc4F)CC3)CC2)cc1` [Example 66-64], the EC50 is over 10000 nM.
The same measure, in the same setting: to `C/C=C/c1ccc(CN2CCC(ON=C3CCN(c4cc(F)c(S(C)(=O)=O)cc4F)CC3)CC2)cc1F` [Example 66-61] belongs 49 nM.
Take `C/C=C/c1ccc(CN2CCC(ON=C3CCN(c4cc(F)c(S(C)(=O)=O)cc4F)CC3)CC2)c(F)c1` [Example 66-62]: the EC50 came to 136 nM.
The same measure, in the same setting: to `CCc1ccc([C@H](C)N2CCC(ON=C3CCN(c4cc(F)c(S(C)(=O)=O)cc4F)CC3)CC2)cc1` [Example 66-63] belongs 294 nM.

The assay is the same for the next values; noted with them: the 38th table, compounds 66-65 to 66-72; read-out: EC50.
Regarding `CCCc1ccc(CN2CCC(ON=C3CCN(c4cc(F)c(C(=O)NC)cc4F)CC3)CC2)cc1` [Example 66-72], the EC50 came to 109 nM.

Staying with this assay, now noted: the 39th table, compounds 67-1 to 67-3; read-out: EC50.
With `CCc1ccc(N2CCC(ON=C3CCN(c4ccc(S(C)(=O)=O)cc4F)CC3)CC2)nc1` [Example 67-2], the EC50 was 558 nM.

The same assay, now with this note: the 43rd table, compounds 75-1 to 75-38; read-out: EC50.
As for `CC(C)OC(=O)N1CCC(ON=C2CCN(c3cc(F)c(CC(=O)N4CCCCC4CN4CCCCC4)cc3F)CC2)CC1` (stereo not shown) [Example 75-32], the EC50 amounted to 300 nM.
Same read-out and setting: under `CC(C)OC(=O)N1CCC(ON=C2CCN(c3cc(F)c(CC(=O)N4CCCCC4CN4CCOCC4)cc3F)CC2)CC1` (stereo not shown) [Example 75-31] stands 192 nM.

The same assay, now with this note: the 44th table, compounds 77-1 to 77-14; read-out: EC50.
With `CCc1cnc(N2CCC(ON=C3CCN(c4cc(F)c(CC(=O)N5CC[C@H](N(C)C)C5)cc4F)CC3)CC2)nc1` [Example 77-5], the EC50 was 6 nM.
